Laboratory results: PubChem BioAssay (NCI)
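Five concentrations, 48 hours, 96-well plates. TGI denotes the concentration required for complete inhibition of growth.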

What was measured:
Assay in all cases: DTP human tumour cell line panel, 48 h
NCI-H522 lung = tested on: NCI-H522 lung
MOLT-4 leukemia = tested on: MOLT-4 leukemia
SW-620 colon = tested on: SW-620 colon
UO-31 renal = tested on: UO-31 renal
RPMI-8226 leukemia = tested on: RPMI-8226 leukemia
HT29 colon = tested on: HT29 colon
CAKI-1 renal = tested on: CAKI-1 renal
SK-OV-3 ovarian = tested on: SK-OV-3 ovarian
UACC-62 melanoma = tested on: UACC-62 melanoma
SNB-19 CNS = tested on: SNB-19 CNS
NCI-H23 lung = tested on: NCI-H23 lung
DMS 114 small cell lung = tested on: DMS 114 small cell lung
HCT-116 colon = tested on: HCT-116 colon
HCC-2998 colon = tested on: HCC-2998 colon
KM12 colon = tested on: KM12 colon
HOP-62 NSCLC = tested on: HOP-62 NSCLC
XF 498 CNS = tested on: XF 498 CNS
K-562 leukemia = tested on: K-562 leukemia
IGROV1 ovarian = tested on: IGROV1 ovarian
SK-MEL-5 melanoma = tested on: SK-MEL-5 melanoma
SN12C renal = tested on: SN12C renal
HOP-18 NSCLC = tested on: HOP-18 NSCLC
OVCAR-4 ovarian = tested on: OVCAR-4 ovarian
KM20L2 colon = tested on: KM20L2 colon
HL-60(TB) leukemia = tested on: HL-60(TB) leukemia
ACHN renal = tested on: ACHN renal
SNB-75 CNS = tested on: SNB-75 CNS
M19-MEL melanoma = tested on: M19-MEL melanoma
LOX IMVI melanoma = tested on: LOX IMVI melanoma
SNB-78 CNS = tested on: SNB-78 CNS
DLD-1 colon = tested on: DLD-1 colon
A549 NSCLC = tested on: A549 NSCLC
SK-MEL-28 melanoma = tested on: SK-MEL-28 melanoma
786-0 renal = tested on: 786-0 renal
UACC-257 melanoma = tested on: UACC-257 melanoma
SK-MEL-2 melanoma = tested on: SK-MEL-2 melanoma
NCI-H460 lung = tested on: NCI-H460 lung
SR leukemia = tested on: SR leukemia
OVCAR-8 ovarian = tested on: OVCAR-8 ovarian
HCT-15 colon = tested on: HCT-15 colon
EKVX NSCLC = tested on: EKVX NSCLC
M14 melanoma = tested on: M14 melanoma
SF-295 CNS = tested on: SF-295 CNS
COLO 205 colon = tested on: COLO 205 colon
A498 renal = tested on: A498 renal
DMS 273 small cell lung = tested on: DMS 273 small cell lung
LXFL 529 NSCLC = tested on: LXFL 529 NSCLC
NCI-H226 lung = tested on: NCI-H226 lung
OVCAR-5 ovarian = tested on: OVCAR-5 ovarian
U251 CNS = tested on: U251 CNS
SF-539 CNS = tested on: SF-539 CNS
OVCAR-3 ovarian = tested on: OVCAR-3 ovarian
TK-10 renal = tested on: TK-10 renal
SF-268 CNS = tested on: SF-268 CNS
MALME-3M melanoma = tested on: MALME-3M melanoma
CCRF-CEM leukemia = tested on: CCRF-CEM leukemia
HOP-92 NSCLC = tested on: HOP-92 NSCLC
RXF-631 renal = tested on: RXF-631 renal
RXF 393 renal = tested on: RXF 393 renal

Measured: TGI

CC(=O)NC1C(OCc2ccccc2)OC(COC(=O)CCCCCCCCCCNc2ccc([N+](=O)[O-])c3[nH]c4ccccc4c(=O)c23)C(O)C1OC(C)C(=O)NC(C)C(=O)NC(CCC(N)=O)C(=O)OCc1ccccc1 (stereo unspecified)
not listed: MALME-3M melanoma | CCRF-CEM leukemia | HOP-92 NSCLC | RXF-631 renal | RXF 393 renal
> 100 µM: all other assays above

CN1CCN(C)C12C=CC=CC21CC1
not listed: SK-MEL-28 melanoma | LXFL 529 NSCLC
> 100 µM: all other assays above
